Measured values: patent US6011041A, “Use of anhydrovinblastine” (priority 1996, dated 2000)
Where a name gives a salt, the structure may show the parent alone.

Experiments:
[1] = system: human rhabdosarcomas; conditions: in vivo; cited from earlier work
[2] = system: fast axoplasmic transport in nerve cells; conditions: cited from earlier work
[3] = system: tumour; conditions: alkaloids extracted from Vinca rosea; cited from earlier work
[4] = system: nerves; conditions: vs vinblastine, vindesine; cited from earlier work
[5] = P388 tumour antitumor activity and maximum tolerated dose in BDF1 mice (FIGS. 6, 7); format: in vivo; conditions: mouse, in vivo, iv; BDF1 mice bearing P388 tumors, single i.v. injection
Description: (§1) Antitumour studies in mice focused on the P388 leukemia model. […] This is an ascitic tumour model that was generated by intraperitoneal inoculation of 1×10^6 P388 cells (derived from culture, with an original cell line obtained from the NCI tumour repository) in BDF1 mice (Charles Rivers). One day after tumour cell inoculation, mice were treated with a single intravenous injection of drug. Animal weight was monitored daily and tumour progression was measured as an increase in animal weight and through estimation of survival time. Therapy was described by a decrease in tumour progression and an increase in survival time relative to an untreated control group. Initial studies established the maximum therapeutic dose for AHVB. Subsequently comparative studies with vincristine and navelbine were initiated where animals were treated with each drug at the maximum therapeutic dose.
(§2) The in vivo antitumour activity of AHVB was compared to that of vincristine, navelbine in the BDF1-murine P388 model in the procedure as follows. P388 cells were derived from the ascities of previously injected female BDF1 mice (19-21 grams) P388 cells, from the NCI tumor repository were inoculated directly into mice. The cells arrive from NCI frozen in 1 ml aliquots. These samples were thawed rapidly at 37° C. and subsequently injected (within 1 hour) intraperitoneally into two mice, 0.5 ml per mouse. One week (7 days) after inoculation, the tumor cells were harvested by removing peritoneal fluid using a sterile syringe with a 22 gauge needle. The cells, pooled from two animals, were counted using a heamocytometer, diluted (RPMI media) to a concentration of 2×10^6 cells/ml and 0.5 ml was then re-injected into each of two BDF1 mice. Remaining cells were washed and placed into a DMSO containing media and frozen (in freezer packs that cool at a defined rate). This process was repeated weekly over a […]. Cells used for anti-tumor studies were collected from the third passage to the 20th passage. After the 20th passage the cells were no longer used for experimental studies. Newly established cells were derived from the frozen cells prepared as described above.
(§3) Groups (five mice per group) of female BDFI mice (Charles Rivers, Canada) were injected (intraperitoneal) with 10^6 P388 cells (as described above). One day after tumor cell inoculation, the mice were given a bolus intravenous injection of indicated drug via the lateral tail vein. […] Following administration of the test articles, animals were weighed daily for fourteen days and monitored for signs of stress twice daily for the first 14 days (once daily on weekends) and once daily for the remainder of the study. Severely distressed animals were terminated by CO2 asphyxiation and the time of death was recorded to occur on the following day. […]

[6] = system: P388 tumor; assay: as above; format: in vivo
Description: as §1, §2, §3

[7] = system: SKOV3 cells; assay: cytotoxicity on SKOV3 cells (FIG. 8); format: cell-based; conditions: Homo sapiens, SK-OV-3, 72 h; SKOV3, 3 day incubation
[8] = system: C-4 cells; assay: cytotoxicity on C-4 cells (FIG. 8); format: cell-based; conditions: 72 h; C-4, 3 day incubation
Description: A wide range of drug concentrations were exposed to tumour cells growing at log phase in 96-well microtitre plates. Cell concentrations depended on the cell line as well as the length of time to be cultured. Typically, P388 cells were plated at a concentration of 30,000, 2,000 and 750 cells per well for studies lasting 1, 3 and 7 days, respectively MCF7 cells were plated at a concentration of 7,000 and 1,500 cells per well for studies lasting 3 and 7 days, respectively. H460 cells were plated at a concentration of 2,500 and 1,000 cells per well for studies lasting 3 and 7 days, respectively. K562 cells were plated at a concentration of 1,500 and 10,000 cells per well for studies lasting 1 and 3 days, respectively. LS180 cells were plated at a concentration of 5,000 and […] cells per well for studies lasting 3 and 7 days, respectively. After plating all cell lines were incubated (CO2 incubator at 37° C., 5% CO2) for 24 hours prior to addition of the cytotoxic agent (See Table 1). Subsequently the plates were incubated for the indicated time period. […] After the sample was mixed through repeated pipetting, the colored product was measured using a plate reader operating at 570 nm. The absorbance values obtained for cells cultured in the absence of drug was assumed to represent 100% viability. […]

[9] = weight loss / toxicity in BDF1 mice bearing P388 tumours (FIG. 4); format: in vivo
Description: Groups (five mice per group) of female BDFI mice (Charles Rivers, Canada) were injected (intraperitoneal) with 10^6 P388 cells (as described above). One day after tumor cell inoculation, the mice were given a bolus intravenous injection of indicated drug via the lateral tail vein. Control groups were injected with saline. Free drug samples were prepared on the day of injection such that the final concentrations were sufficient to deliver the indicated drug dose in a volume of 200 μl. All dilutions were made using 0.9% Sodium Chloride Injection USP. The mice were briefly (less than 30 sec.) restrained during intravenous injections. Dilation of the vein was achieved by holding the animals under a heat lamp for a period of between five and ten minutes. Following administration of the test articles, animals were weighed daily for fourteen days and monitored for signs of stress twice daily for the first 14 days (once daily on weekends) and once daily for the remainder of the study. Severely distressed animals were terminated by CO2 asphyxiation and the time of death was recorded to occur on the following day. Although complete dose titrations were completed for each drug, the data shown in FIG. 6 is that obtained after administration of the free drugs at their maximum tolerated dose. This was 3, 40 and 40 mg/kg for vincristine, navelbine and AHVB, respectively.
After treating mice (bearing the P388 tumor) with a single dose of the indicated drug, animals were examined twice daily for the first 14 days (once daily on weekends). Weight gain in the control is an indication of tumor progression.
The studies were conducted as described for FIG. 6. The maximum tolerated dose of AHVB (40 mg/kg) as specified in these studies reflects a very acute (within 1 hour) toxic reaction that limits further dose excalatin for i.v. administration of AHVB.

[10] = system: cells derived from human lung cancer; conditions: cited from earlier work
[11] = system: L1210 leukemia; conditions: cited from earlier work
[12] = system: murine P388 leukemia; conditions: cited from earlier work
[13] = system: non-small cell lung cancer; conditions: patients; cited from earlier work

SMILES: CC[C@]1(O)C[C@H]2CN(CCc3c([nH]c4ccccc34)[C@@](C(=O)OC)(c3cc4c(cc3OC)N(C=O)[C@H]3[C@@](O)(C(=O)OC)[C@H](OC(C)=O)[C@]5(CC)C=CCN6CC[C@]43[C@@H]65)C2)C1 [vincristine, Sulfate of 22-oxovincaleukoblastine]
- activity in human rhabdosarcomas transplanted in nude mice [1]: very effective
- potency in blocking fast axoplasmic transport [2]: more potent than vinblastine or vindesine
- antitumour activity [3]: significant antitumour activity
- uptake into nerves, times faster than the other drugs [4]: 4 times

SMILES: CCC1=CC2CN(CCc3c([nH]c4ccccc34)C(C(=O)OC)(c3cc4c(cc3OC)N(C)C3C(O)(C(=O)OC)C(OC(C)=O)C5(CC)C=CCN6CCC43C65)C2)C1 (centres unmarked) [AHVB, 3',4'-anhydrovinblastine]
- MTD [5]: 40 mg/kg
- times less toxic (on a weight basis) than vincristine ([6]; BDF1 mice bearing P388, single i.v.): approximately 10 times
- antitumor activity (number of long term survivors, >60 days) ([6]; maximum tolerated dose, AHVB 40 mg/kg vs vincristine 3 mg/kg, single i.v.): significantly better than that observed for vincristine
- in vivo antitumor efficacy relative to other vinca alkaloids such as vincristine and navelbine ([6]; overall conclusion): significant improvements in in vivo antitumor efficacy
- IC50 [7]: 4 µM
- IC50 [8]: 0.02 µM
- time of very acute toxic reaction that limits dose escalation ([9]; i.v., at maximum tolerated dose 40 mg/kg): ≤ 1 h
- toxicity ranking (vinca alkaloid induced weight loss) ([9]; single i.v. injection at maximum tolerated dose, AHVB 40 mg/kg): least toxic of the three drugs evaluated

SMILES: CCC1=C[C@@H]2CN(C1)Cc1c([nH]c3ccccc13)[C@@](C(=O)OC)(c1cc3c(cc1OC)N(C)[C@H]1[C@@](O)(C(=O)OC)[C@H](OC(C)=O)[C@]4(CC)C=CCN5CC[C@]31[C@@H]54)C2 [navelbine, 3',4'-didehydro-4'-deoxy-C'-norvincaleukoblastine-di-L-tartrate]
- activity against cells derived from human lung cancer [10]: active
- potency against L1210 leukemia [11]: less potent than vinbiastine and vincristine
- potency against murine P388 leukemia [12]: less potent than vinbiastine and vincristine
- clinical utility in non-small cell lung cancer [13]: support its utility in treating non-small cell lung cancer
- toxicity at maximum tolerated dose ([9]; i.v., compared with acute toxicity of AHVB): more prolonged toxicity
